Source: ChEMBL document CHEMBL1201862, “PubChem BioAssay data set” (2004)
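Values below derive from 48-hour exposures of cells grown in 96-well plates, with endpoints linearly interpolated between the two concentrations bracketing the appropriate inhibition level. GI50 = concentration required for 50% inhibition of growth.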 Activity calls are given as the source filed them. Rule as the data show it: active = GI50 up to about 1.1 µM and inactive = higher.

Tests used:
Test in all cases: growth of human tumour cells (NCI), 48 h
LOX IMVI = system: LOX IMVI
SK-OV-3 = system: SK-OV-3
Hs-578T = system: Hs-578T
SK-MEL-28 = system: SK-MEL-28
SNB-19 = system: SNB-19
HOP-62 = system: HOP-62
OVCAR-5 = system: OVCAR-5
HT-29 = system: HT-29
EKVX = system: EKVX
CAKI-1 = system: CAKI-1
NCI-H460 = system: NCI-H460
MDA-MB-435 = system: MDA-MB-435
HCC 2998 = system: HCC 2998
T47D = system: T47D
ACHN = system: ACHN
DU-145 = system: DU-145
SN12C = system: SN12C
SK-MEL-2 = system: SK-MEL-2
SW-620 = system: SW-620
OVCAR-3 = system: OVCAR-3
U-251 = system: U-251
OVCAR-8 = system: OVCAR-8
MDA-N = system: MDA-N
CCRF-CEM = system: CCRF-CEM
SF-268 = system: SF-268
KM12 = system: KM12
UO-31 = system: UO-31
IGROV-1 = system: IGROV-1
NCI-H226 = system: NCI-H226
NCI-H23 = system: NCI-H23
HOP-92 = system: HOP-92
COLO 205 = system: COLO 205
786-0 = system: 786-0
HCT-15 = system: HCT-15
MCF7 = system: MCF7
SR = system: SR
UACC-257 = system: UACC-257
NCI-H522 = system: NCI-H522
RXF 393 = system: RXF 393
SF-295 = system: SF-295
M14 = system: M14
OVCAR-4 = system: OVCAR-4
Malme-3M = system: Malme-3M
PC-3 = system: PC-3
A498 = system: A498
SNB-75 = system: SNB-75
SK-MEL-5 = system: SK-MEL-5
K562 = system: K562
NCI/ADR-RES = system: NCI/ADR-RES
MDA-MB-231 = system: MDA-MB-231
MOLT-4 = system: MOLT-4
SF-539 = system: SF-539
RPMI-8226 = system: RPMI-8226
TK-10 = system: TK-10
HL-60 = system: HL-60
HCT-116 = system: HCT-116
UACC-62 = system: UACC-62
A549 = system: A549
BT-549 = system: BT-549

Measured: GI50

COC12c3ccccc3-c3ccccc3C1[C@@H](C(=O)O)[C@H]2C(=O)O (some centres undefined)
> 10 µM: HCT-15
inactive: LOX IMVI > 10 µM | SK-OV-3 > 10 µM | Hs-578T > 10 µM | SK-MEL-28 > 10 µM | SNB-19 > 10 µM | HOP-62 > 10 µM | OVCAR-5 > 10 µM | HT-29 > 10 µM | EKVX > 10 µM | CAKI-1 > 10 µM | NCI-H460 > 10 µM | MDA-MB-435 > 10 µM | HCC 2998 > 10 µM | T47D > 10 µM | ACHN > 10 µM | DU-145 > 10 µM | SN12C > 10 µM | SK-MEL-2 > 10 µM | SW-620 > 10 µM | OVCAR-3 > 10 µM | U-251 > 10 µM | OVCAR-8 > 10 µM | MDA-N > 10 µM | CCRF-CEM > 10 µM | SF-268 > 10 µM | KM12 > 10 µM | UO-31 > 10 µM | IGROV-1 > 10 µM | NCI-H226 > 10 µM | NCI-H23 > 10 µM | HOP-92 > 10 µM | COLO 205 > 10 µM | 786-0 > 10 µM | MCF7 > 10 µM | SR > 10 µM | UACC-257 > 10 µM | NCI-H522 > 10 µM | RXF 393 > 10 µM | SF-295 > 10 µM | M14 > 10 µM | OVCAR-4 > 10 µM | Malme-3M > 10 µM | PC-3 > 10 µM | A498 > 10 µM | SNB-75 > 10 µM | SK-MEL-5 > 10 µM | K562 > 10 µM | NCI/ADR-RES > 10 µM | MDA-MB-231 > 10 µM | MOLT-4 > 10 µM | SF-539 > 10 µM | RPMI-8226 > 10 µM | TK-10 > 10 µM | HL-60 > 10 µM

CCC(NC(C)c1ccccc1)C(O)c1ccc(OCc2ccccc2)c(OCc2ccccc2)c1 (centres undefined)
inactive: LOX IMVI 12.1 µM | SK-OV-3 15.5 µM | Hs-578T 19 µM | SK-MEL-28 19.9 µM | SNB-19 14.5 µM | HOP-62 17.9 µM | OVCAR-5 13.1 µM | HT-29 3.31 µM | EKVX 16.5 µM | CAKI-1 11.9 µM | NCI-H460 15.1 µM | MDA-MB-435 13.8 µM | HCC 2998 2.37 µM | T47D 15.1 µM | ACHN 18 µM | HCT-116 14.5 µM | DU-145 18.2 µM | SN12C 15.1 µM | SK-MEL-2 14.9 µM | SW-620 4.57 µM | OVCAR-3 12 µM | U-251 13 µM | OVCAR-8 14.1 µM | MDA-N 15.3 µM | CCRF-CEM 14.2 µM | SF-268 19.4 µM | KM12 5.81 µM | UO-31 11 µM | IGROV-1 18.6 µM | NCI-H226 18.6 µM | NCI-H23 16.4 µM | HOP-92 5.74 µM | UACC-62 17.5 µM | A549 16 µM | COLO 205 2.23 µM | 786-0 13.5 µM | MCF7 14.3 µM | SR 2.47 µM | UACC-257 4.04 µM | NCI-H522 15.7 µM | RXF 393 8.65 µM | SF-295 20.4 µM | M14 4.86 µM | OVCAR-4 16.4 µM | Malme-3M 14.6 µM | PC-3 13.9 µM | A498 24 µM | SNB-75 10.6 µM | SK-MEL-5 4.45 µM | K562 3.22 µM | NCI/ADR-RES 15.8 µM | MDA-MB-231 8.47 µM | MOLT-4 14.8 µM | SF-539 16.8 µM | RPMI-8226 4.04 µM | TK-10 17.8 µM | HL-60 13.8 µM
14.5 µM: HCT-15

Nc1cnc2c(c1)c(=O)nc1n2CCS1
inactive: LOX IMVI > 100 µM | SK-OV-3 > 100 µM | SK-MEL-28 > 100 µM | SNB-19 > 100 µM | HOP-62 > 100 µM | OVCAR-5 > 100 µM | HT-29 > 100 µM | EKVX 39.3 µM | CAKI-1 72.4 µM | NCI-H460 > 100 µM | MDA-MB-435 > 100 µM | HCC 2998 > 100 µM | ACHN > 100 µM | HCT-116 > 100 µM | DU-145 > 100 µM | SN12C > 100 µM | SK-MEL-2 > 100 µM | SW-620 > 100 µM | OVCAR-3 > 100 µM | U-251 > 100 µM | OVCAR-8 > 100 µM | MDA-N > 100 µM | CCRF-CEM 77.6 µM | SF-268 > 100 µM | KM12 55.1 µM | UO-31 64 µM | BT-549 > 100 µM | NCI-H226 > 100 µM | NCI-H23 > 100 µM | HOP-92 > 100 µM | UACC-62 > 100 µM | A549 > 100 µM | COLO 205 > 100 µM | 786-0 > 100 µM | MCF7 > 100 µM | UACC-257 > 100 µM | RXF 393 > 100 µM | SF-295 > 100 µM | OVCAR-4 > 100 µM | Malme-3M > 100 µM | PC-3 > 100 µM | A498 > 100 µM | SNB-75 86.9 µM | SK-MEL-5 > 100 µM | K562 > 100 µM | NCI/ADR-RES > 100 µM | MDA-MB-231 80 µM | MOLT-4 > 100 µM | SF-539 > 100 µM | RPMI-8226 74 µM | TK-10 > 100 µM | HL-60 > 100 µM
> 100 µM: HCT-15

O=Nc1c(-c2c(O)[nH]c3ccc(I)cc23)[nH]c2ccccc12
active: KM12 0.282 µM
3.21 µM: HCT-15
inactive: LOX IMVI 2.45 µM | SK-OV-3 2.42 µM | SK-MEL-28 4.32 µM | SNB-19 > 29.7 µM | OVCAR-5 3.25 µM | HT-29 3.48 µM | EKVX 2.96 µM | CAKI-1 2.45 µM | NCI-H460 3.7 µM | MDA-MB-435 4.55 µM | HCC 2998 2.31 µM | ACHN 2.53 µM | HCT-116 3.01 µM | DU-145 3.35 µM | SN12C 3.72 µM | SK-MEL-2 1.99 µM | OVCAR-3 5.35 µM | U-251 5.62 µM | OVCAR-8 4.95 µM | MDA-N 4.97 µM | CCRF-CEM 2.08 µM | SF-268 4.42 µM | UO-31 2.19 µM | BT-549 18 µM | IGROV-1 2.13 µM | NCI-H23 4.58 µM | HOP-92 > 20.2 µM | UACC-62 2.69 µM | A549 3.27 µM | COLO 205 4.26 µM | MCF7 2.41 µM | UACC-257 > 31.5 µM | NCI-H522 2.82 µM | RXF 393 2.36 µM | SF-295 6.28 µM | M14 > 21.6 µM | OVCAR-4 3.41 µM | PC-3 3.37 µM | SNB-75 5.33 µM | SK-MEL-5 4.12 µM | NCI/ADR-RES 8.2 µM | MDA-MB-231 3.79 µM | SF-539 7.03 µM | RPMI-8226 1.88 µM | TK-10 5.38 µM | HL-60 2.61 µM
